Experimental data as given in patent US10583129B2, “Use of EP4 receptor antagonists for the treatment of NASH-associated liver cancer” (AskAt Inc., priority 2016, dated 2020).

Assays:
[1] = test system: obesity-induced NASH-associated mouse liver cancer model; assay: DMBA plus high fat diet-induced NASH-associated mouse liver cancer model: tumor development and body weight; assay type: in vivo
Description: FIG. 1 depicts a mouse model timeline developed by treating with 7,12-dimethylbenz(a)anthracene (“DMBA”), and by feeding with a high fat diet (HFD). Compound A was administered to the mice every day from 19 weeks of age to 30 weeks of age and then euthanized (“Eut”).
FIG. 2 is macroscopic photographs of the liver isolated from the vehicle-treated mice (left side) and Compound A-treated mice (right side). […] Compound A or a vehicle (n=5, each) were treated to the mice every day from 19 weeks of age to 30 weeks of age. Arrowheads identify hepatocellular carcinomas (HCCs).
FIG. 3 depicts the average liver tumor numbers and the relative size distribution (classified as >6 mm, 2-6 mm, 2 mm). “NS” means not significant.
FIG. 4 depicts the average body weight of the vehicle-treated group and Compound A-treated group at the age of 30 weeks. Data are represented as means±SD.
C57/BL6 mice were purchased from CLEA Japan Inc. The TIr2^−/− mice (C57/BL6) were purchased from Oriental Yeast Co. Ltd.
Hematoxylin and eosin staining and immunofluorescence analysis were performed as previously described (Yoshimoto et al., Nature, 2013, 499:97-101).
P values less than 0.05 were considered significant. “NS” indicates not significant.
This mouse model was developed by treating with DMBA, 7,12-dimethylbenz(a)anthracene, and by feeding a high fat diet (HFD) (Ootani 2013). […] In this experiment, Compound A 30 mg/kg QD was administered to the mice every day from 19 weeks of age to 30 weeks of age (FIG. 1). As a control, a separate group of mice were treated only with a vehicle and no active ingredient.

[2] = test system: immune cells obtained from mouse livers; conditions: liver, 30 mg/kg QD, vs vehicle
Description: FIG. 5A depicts flow cytometry analysis of immune cells between vehicle-treated mice or Compound A-treated mice. The percentages of total CD11c^hi MHC class II (MHC II)^hi, CD11b^+ CD11c^hi MHC II^hi, or CD103^+ CD11c^hiMHC II^hi cells were analyzed by flow cytometry. Data are represented as means±SEM.
FIG. 6A depicts the percentages of CD3^+ CD4^+ Foxp3^+, CD3^+ CD4^+ Foxp3^−, CD3^+ CD8^+ cells analyzed by flow cytometry. The ratio of CD8^+ T cells to CD4^+ Foxp3^+ Tregs was calculated. Data are represented as means±SEM. NS=not significant, *p<0.05, **p<0.01.
In FIG. 7A, the percentages of CD69^+ CD8^+ cells were analyzed by flow cytometry (*p<0.05, **p<0.01).
In FIG. 8A, the percentages of PD-1^+ CD8^+ cells were analyzed by flow cytometry (*p<0.05, **p<0.01).
Immune cells were obtained from mouse livers and were subjected to measuring cytokine production and flow cytometric analysis.
Data were analyzed by unpaired t-test with Welch correction (two-side) or Man-Whitney test (two-side). P values less than 0.05 were considered significant. “NS” indicates not significant.
The impact of EP4 blockage on the prevalence and activation status of immune cells was assessed.

C[C@H](NC(=O)c1cc(Cl)cnc1Oc1cccc(F)c1)c1ccc(C(=O)O)cc1 [Compound A, 4-[(1S)-1-({[5-chloro-2-(3-fluorophenoxy)pyridin-3-yl]carbonyl}amino)ethyl]-benzoic acid]
body weight ([1]; 30 mg/kg QD, at the age of 30 weeks, FIG. 4): did not influence body weight
Hepatocellular carcinoma (HCC) development ([1]; Compound A 30 mg/kg QD from 19 to 30 weeks of age, compared to vehicle-treated mice): strongly reduced
Tumor colony sized more than 6 mm ([1]; after daily therapy from 19 to 30 weeks of age, FIG. 3): completely disappeared
tumor number in the liver ([1]; treated daily from 19 to 30 weeks of age, compared to vehicle-treated mice, FIG. 3): significantly inhibited
frequency of CD11b+ DCs ([2]; FIG. 5A/5B): not changed
frequency of CD11chi MHC class IIhi dendritic cells (DCs) ([2]; FIG. 5A/5B): not changed
population of CD103+ DCs ([2]; FIG. 5A/5B): increased
frequency of CD8+ T cells ([2]; FIG. 6A): not changed
ratio of CD8+ T cells to Tregs ([2]; FIG. 6A): increased
frequency of CD4+Foxp3+ regulatory T cells (Tregs) ([2]; FIG. 6A/6B): significantly reduced
frequency of CD4+Foxp3- T cells ([2]; FIG. 6A/6B): but not CD4^+Foxp3^− T cells, was significantly reduced
number of CD8+ T cells expressing the activation marker CD69 ([2]; FIG. 7A/7B): significantly increased
number of CD8+ T cells expressing programmed cell death-1 (PD-1) ([2]; FIG. 8A/8B): significantly reduced
